Experimental data from ChEMBL document CHEMBL3991601, “The target landscape of clinical kinase drugs” (Science, 2017).
Calls of active or inactive are those of the source.

Legend:
[1] = target: T1, Mitogen-activated protein kinase kinase kinase 3 (Homo sapiens, UniProt Q99759)
T1 sequence (Q99759 whole entry): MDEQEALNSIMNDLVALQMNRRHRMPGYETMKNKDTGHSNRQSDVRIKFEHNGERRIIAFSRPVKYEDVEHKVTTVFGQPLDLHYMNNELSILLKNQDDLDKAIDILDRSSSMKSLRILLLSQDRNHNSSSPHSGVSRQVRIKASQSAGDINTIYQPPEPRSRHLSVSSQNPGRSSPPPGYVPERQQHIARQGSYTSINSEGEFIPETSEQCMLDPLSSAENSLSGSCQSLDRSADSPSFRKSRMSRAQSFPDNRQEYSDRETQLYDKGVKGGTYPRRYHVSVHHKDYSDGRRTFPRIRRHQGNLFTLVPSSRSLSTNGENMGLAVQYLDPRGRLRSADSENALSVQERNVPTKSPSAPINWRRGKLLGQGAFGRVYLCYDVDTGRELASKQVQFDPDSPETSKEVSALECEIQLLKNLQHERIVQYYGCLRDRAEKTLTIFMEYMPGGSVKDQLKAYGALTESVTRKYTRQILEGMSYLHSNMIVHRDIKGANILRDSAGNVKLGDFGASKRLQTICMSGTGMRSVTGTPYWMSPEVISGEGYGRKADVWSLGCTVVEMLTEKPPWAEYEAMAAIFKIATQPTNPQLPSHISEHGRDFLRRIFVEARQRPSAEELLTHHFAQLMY

[2] = target: Serine/threonine-protein kinase ATR (Homo sapiens, UniProt Q13535)
[3] = target: Serine/threonine-protein kinase pim-2 (Homo sapiens, UniProt Q9P1W9)
[4] = target: Serine/threonine-protein kinase MRCK gamma (Homo sapiens, UniProt Q6DT37)
[5] = target: PAS domain-containing serine/threonine-protein kinase (Homo sapiens, UniProt Q96RG2)
[6] = target: High affinity nerve growth factor receptor (Homo sapiens, UniProt P04629)
[7] = target: Dual specificity testis-specific protein kinase 2 (Homo sapiens, UniProt Q96S53)
[8] = target: Bone morphogenetic protein receptor type-1A (Homo sapiens, UniProt P36894)
[9] = target: Hepatocyte growth factor receptor (Homo sapiens, UniProt P08581)
[10] = target: T2, Cyclin-dependent kinase-like 5 (Homo sapiens, UniProt O76039)
T2 sequence (O76039 whole entry): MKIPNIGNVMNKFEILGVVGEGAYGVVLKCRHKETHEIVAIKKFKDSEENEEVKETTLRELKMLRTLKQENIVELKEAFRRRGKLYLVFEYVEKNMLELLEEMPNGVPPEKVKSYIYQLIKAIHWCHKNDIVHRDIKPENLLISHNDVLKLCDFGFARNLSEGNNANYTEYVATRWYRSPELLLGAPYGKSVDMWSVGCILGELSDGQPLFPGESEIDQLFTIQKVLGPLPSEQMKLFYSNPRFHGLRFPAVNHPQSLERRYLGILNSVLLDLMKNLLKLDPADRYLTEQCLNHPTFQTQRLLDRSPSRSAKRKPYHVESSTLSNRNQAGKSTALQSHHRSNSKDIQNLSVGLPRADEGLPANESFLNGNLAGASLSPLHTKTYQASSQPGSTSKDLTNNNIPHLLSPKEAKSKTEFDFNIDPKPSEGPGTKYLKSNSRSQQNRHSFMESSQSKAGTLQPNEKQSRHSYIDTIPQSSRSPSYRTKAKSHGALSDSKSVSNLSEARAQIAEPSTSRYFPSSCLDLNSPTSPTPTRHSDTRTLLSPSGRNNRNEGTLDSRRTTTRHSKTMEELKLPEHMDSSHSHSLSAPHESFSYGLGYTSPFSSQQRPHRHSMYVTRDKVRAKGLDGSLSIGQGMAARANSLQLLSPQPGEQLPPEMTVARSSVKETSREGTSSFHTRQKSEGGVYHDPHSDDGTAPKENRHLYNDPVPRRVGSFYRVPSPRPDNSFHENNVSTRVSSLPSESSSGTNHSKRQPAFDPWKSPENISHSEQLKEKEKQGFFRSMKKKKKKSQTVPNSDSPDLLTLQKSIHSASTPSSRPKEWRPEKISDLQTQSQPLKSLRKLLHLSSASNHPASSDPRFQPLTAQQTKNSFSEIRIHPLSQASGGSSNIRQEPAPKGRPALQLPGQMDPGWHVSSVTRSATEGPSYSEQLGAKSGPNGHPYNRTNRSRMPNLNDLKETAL

[11] = target: Choline-phosphate cytidylyltransferase A (Homo sapiens, UniProt P49585)
[12] = target: Phosphatidylethanolamine-binding protein 1 (Homo sapiens, UniProt P30086)
[13] = target: Chromodomain-helicase-DNA-binding protein 4 (Homo sapiens, UniProt Q14839)
[14] = target: Dual specificity protein kinase CLK2 (Homo sapiens, UniProt P49760)
[15] = target: Proto-oncogene tyrosine-protein kinase receptor Ret (Homo sapiens, UniProt P07949)
[16] = target: Epidermal growth factor receptor (Homo sapiens, UniProt P00533)
[17] = target: DNA topoisomerase 2-alpha (Homo sapiens, UniProt P11388)
[18] = target: Serine/threonine-protein kinase 24 (Homo sapiens, UniProt Q9Y6E0)
[19] = target: Mitogen-activated protein kinase 14 (Homo sapiens, UniProt Q16539)
[20] = target: Rho-associated protein kinase 1 (Homo sapiens, UniProt Q13464)
Also: in the data inactive means no Kd found up to 30 µM.

PAS domain-containing serine/threonine-protein kinase, sequence (Q96RG2 whole entry, the tested form may be a part): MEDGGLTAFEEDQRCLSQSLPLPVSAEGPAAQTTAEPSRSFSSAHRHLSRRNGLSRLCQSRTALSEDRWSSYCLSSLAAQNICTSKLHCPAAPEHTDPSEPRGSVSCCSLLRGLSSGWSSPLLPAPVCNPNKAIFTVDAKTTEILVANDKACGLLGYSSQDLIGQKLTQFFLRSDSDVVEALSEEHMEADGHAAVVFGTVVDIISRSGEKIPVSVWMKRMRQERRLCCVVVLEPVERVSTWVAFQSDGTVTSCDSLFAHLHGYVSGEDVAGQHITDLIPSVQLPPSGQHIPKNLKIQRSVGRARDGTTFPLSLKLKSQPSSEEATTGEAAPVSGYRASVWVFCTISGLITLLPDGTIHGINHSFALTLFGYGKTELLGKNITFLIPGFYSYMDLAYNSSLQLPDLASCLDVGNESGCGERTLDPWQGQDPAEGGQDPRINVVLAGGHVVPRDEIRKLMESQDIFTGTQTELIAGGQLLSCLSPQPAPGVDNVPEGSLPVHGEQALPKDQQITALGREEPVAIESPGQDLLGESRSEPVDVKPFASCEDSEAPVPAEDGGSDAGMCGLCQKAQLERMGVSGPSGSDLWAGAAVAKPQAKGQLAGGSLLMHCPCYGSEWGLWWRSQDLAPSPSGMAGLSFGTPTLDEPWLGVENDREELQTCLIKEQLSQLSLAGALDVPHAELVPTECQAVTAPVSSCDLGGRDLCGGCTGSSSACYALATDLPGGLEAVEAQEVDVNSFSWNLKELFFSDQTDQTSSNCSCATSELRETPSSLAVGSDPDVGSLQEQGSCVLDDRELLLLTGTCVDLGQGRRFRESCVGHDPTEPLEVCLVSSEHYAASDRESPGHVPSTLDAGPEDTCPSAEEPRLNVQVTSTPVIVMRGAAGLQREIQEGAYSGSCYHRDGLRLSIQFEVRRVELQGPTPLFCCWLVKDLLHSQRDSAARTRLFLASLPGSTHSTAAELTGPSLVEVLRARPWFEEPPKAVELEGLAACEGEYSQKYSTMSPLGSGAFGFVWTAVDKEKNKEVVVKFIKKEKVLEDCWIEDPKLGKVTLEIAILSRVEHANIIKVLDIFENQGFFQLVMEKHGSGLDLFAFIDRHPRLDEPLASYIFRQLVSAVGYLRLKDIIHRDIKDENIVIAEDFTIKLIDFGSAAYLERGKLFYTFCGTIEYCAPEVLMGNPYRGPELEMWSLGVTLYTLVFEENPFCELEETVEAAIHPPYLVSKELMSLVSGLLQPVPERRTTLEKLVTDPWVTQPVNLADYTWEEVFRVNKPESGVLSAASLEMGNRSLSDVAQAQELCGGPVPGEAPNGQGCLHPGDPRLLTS
DNA topoisomerase 2-alpha, sequence (P11388 whole entry): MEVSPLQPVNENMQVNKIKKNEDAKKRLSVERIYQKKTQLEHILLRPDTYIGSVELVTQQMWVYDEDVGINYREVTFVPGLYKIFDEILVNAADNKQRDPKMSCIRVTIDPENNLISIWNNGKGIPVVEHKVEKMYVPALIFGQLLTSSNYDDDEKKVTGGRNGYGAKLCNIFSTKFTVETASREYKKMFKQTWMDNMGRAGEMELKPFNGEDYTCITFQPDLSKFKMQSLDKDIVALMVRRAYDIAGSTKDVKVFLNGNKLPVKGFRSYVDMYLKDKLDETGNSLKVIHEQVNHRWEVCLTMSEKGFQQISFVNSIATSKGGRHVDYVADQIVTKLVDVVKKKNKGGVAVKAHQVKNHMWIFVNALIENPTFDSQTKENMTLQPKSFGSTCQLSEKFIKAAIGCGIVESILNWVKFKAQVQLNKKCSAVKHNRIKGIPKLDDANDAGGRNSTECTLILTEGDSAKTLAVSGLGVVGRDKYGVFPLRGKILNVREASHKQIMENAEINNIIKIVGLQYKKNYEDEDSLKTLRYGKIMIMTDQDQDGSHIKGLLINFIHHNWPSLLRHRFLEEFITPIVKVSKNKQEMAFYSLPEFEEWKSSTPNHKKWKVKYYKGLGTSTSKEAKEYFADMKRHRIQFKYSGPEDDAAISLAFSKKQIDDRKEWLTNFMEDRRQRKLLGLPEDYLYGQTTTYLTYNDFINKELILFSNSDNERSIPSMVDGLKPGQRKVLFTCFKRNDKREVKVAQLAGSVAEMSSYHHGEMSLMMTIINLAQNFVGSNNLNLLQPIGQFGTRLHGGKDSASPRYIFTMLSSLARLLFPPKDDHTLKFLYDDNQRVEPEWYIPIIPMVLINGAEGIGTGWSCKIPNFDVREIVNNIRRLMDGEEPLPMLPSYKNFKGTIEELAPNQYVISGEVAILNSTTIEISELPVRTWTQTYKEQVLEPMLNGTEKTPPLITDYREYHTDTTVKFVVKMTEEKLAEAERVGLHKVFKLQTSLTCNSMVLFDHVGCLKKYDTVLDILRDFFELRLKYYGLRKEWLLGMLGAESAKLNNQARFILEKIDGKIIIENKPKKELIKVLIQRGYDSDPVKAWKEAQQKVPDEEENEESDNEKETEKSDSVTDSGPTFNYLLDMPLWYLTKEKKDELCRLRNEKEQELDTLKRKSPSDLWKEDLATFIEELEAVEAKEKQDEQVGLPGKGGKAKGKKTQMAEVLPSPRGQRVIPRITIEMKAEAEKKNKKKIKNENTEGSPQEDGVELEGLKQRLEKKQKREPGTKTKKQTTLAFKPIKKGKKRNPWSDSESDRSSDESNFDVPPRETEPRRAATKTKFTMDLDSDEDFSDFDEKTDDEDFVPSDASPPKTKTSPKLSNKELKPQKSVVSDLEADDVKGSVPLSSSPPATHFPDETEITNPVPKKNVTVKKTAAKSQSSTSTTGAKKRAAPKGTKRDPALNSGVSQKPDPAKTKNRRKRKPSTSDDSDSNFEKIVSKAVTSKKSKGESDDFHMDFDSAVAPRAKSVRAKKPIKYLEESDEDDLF
Mitogen-activated protein kinase 14, sequence (Q16539 whole entry): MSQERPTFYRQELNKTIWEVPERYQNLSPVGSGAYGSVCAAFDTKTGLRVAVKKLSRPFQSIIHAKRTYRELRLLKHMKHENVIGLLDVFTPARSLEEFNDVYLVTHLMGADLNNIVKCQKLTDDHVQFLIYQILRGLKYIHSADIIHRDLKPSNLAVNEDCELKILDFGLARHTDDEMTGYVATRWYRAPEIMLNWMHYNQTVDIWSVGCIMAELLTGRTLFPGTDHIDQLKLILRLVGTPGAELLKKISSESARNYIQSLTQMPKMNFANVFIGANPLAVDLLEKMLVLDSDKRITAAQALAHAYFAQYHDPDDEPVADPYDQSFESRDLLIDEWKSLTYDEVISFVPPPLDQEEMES
Serine/threonine-protein kinase MRCK gamma, sequence (Q6DT37 whole entry, the tested form may be a part): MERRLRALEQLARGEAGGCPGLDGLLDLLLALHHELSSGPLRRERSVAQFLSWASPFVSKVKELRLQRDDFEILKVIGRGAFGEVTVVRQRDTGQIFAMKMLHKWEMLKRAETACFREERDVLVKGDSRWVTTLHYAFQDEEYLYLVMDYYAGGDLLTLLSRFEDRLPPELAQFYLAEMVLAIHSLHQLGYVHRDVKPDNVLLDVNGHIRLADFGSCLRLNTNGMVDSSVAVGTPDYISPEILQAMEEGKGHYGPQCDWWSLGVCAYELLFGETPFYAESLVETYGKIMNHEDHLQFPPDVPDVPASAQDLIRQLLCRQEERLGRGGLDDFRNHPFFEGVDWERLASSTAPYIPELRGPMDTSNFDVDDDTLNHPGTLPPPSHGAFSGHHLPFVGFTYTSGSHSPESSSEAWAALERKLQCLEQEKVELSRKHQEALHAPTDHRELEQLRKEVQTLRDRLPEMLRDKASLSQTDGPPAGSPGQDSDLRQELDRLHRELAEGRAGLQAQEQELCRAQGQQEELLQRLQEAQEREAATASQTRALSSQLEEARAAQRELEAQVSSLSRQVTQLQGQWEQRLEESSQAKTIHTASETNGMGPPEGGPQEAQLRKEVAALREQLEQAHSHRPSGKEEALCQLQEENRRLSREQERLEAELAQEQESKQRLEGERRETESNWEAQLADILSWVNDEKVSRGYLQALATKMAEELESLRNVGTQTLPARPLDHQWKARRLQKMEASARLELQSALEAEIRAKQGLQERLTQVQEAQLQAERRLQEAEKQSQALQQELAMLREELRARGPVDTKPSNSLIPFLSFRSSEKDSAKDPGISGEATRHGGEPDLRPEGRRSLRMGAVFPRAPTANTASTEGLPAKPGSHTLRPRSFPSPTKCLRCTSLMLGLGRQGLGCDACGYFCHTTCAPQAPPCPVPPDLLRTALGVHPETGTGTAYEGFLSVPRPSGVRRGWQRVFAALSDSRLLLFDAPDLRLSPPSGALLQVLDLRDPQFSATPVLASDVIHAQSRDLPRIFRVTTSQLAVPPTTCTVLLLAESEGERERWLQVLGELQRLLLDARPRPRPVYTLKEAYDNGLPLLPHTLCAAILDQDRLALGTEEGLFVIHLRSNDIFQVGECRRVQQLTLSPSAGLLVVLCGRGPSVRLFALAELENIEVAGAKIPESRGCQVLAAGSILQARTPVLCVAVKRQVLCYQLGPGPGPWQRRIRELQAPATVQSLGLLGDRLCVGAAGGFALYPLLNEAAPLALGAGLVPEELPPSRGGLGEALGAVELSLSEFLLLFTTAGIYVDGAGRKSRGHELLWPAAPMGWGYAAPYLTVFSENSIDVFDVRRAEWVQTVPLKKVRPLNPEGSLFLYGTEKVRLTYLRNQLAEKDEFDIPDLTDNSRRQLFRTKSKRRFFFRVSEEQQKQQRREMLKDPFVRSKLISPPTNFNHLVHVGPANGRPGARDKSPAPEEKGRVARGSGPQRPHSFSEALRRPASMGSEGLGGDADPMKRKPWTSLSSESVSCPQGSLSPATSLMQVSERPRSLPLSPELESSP
Serine/threonine-protein kinase pim-2, sequence (Q9P1W9 whole entry): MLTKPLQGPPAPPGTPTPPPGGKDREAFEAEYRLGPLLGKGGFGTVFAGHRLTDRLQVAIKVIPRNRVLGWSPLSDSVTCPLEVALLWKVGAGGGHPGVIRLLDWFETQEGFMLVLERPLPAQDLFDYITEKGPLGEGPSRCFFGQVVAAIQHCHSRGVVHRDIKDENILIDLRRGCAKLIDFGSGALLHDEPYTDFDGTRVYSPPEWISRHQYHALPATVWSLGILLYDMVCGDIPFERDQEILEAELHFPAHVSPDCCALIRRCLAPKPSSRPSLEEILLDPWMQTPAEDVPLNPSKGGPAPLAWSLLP

For `C#Cc1cccc(Nc2ncnc3cc4c(cc23)OCCOCCOCCO4)c1` [ICOTINIB], the Kd [1] was > 30 µM (inactive), the Kd [2] was > 30 µM (inactive) and the Kd [3] was > 30 µM (inactive). For the same compound, the Kd [4] was > 30 µM (inactive), the Kd [5] was > 30 µM (inactive) and the Kd [6] was > 30 µM (inactive). For the same compound, the Kd [7] was > 30 µM (inactive), the Kd [8] was > 30 µM (inactive) and the Kd [9] was > 30 µM (inactive). The Kd [10] was > 30 µM (inactive), the Kd [11] was > 30 µM (inactive) and the Kd [12] was > 30 µM (inactive). For the same compound, the Kd [13] was > 30 µM (inactive), the Kd [14] was > 30 µM (inactive) and the Kd [15] was > 30 µM (inactive). The Kd [16] was 10.1 µM (active), the Kd [17] was > 30 µM (inactive) and the Kd [18] was > 30 µM (inactive). The Kd [19] was > 30 µM (inactive) and the Kd [20] was > 30 µM (inactive).

`O=C(Nc1ccc(OC(F)(F)F)cc1)c1sccc1NCc1ccnc2ccccc12` [OSI-930] was tested, and the Kd [1] was > 30 µM (inactive), the Kd [2] was > 30 µM (inactive) and the Kd [3] was > 30 µM (inactive). The Kd [4] was > 30 µM (inactive), the Kd [5] was > 30 µM (inactive) and the Kd [6] was > 30 µM (inactive). For the same compound, the Kd [7] was > 30 µM (inactive), the Kd [8] was > 30 µM (inactive) and the Kd [9] was > 30 µM (inactive). The Kd [10] was > 30 µM (inactive), the Kd [11] was > 30 µM (inactive) and the Kd [13] was > 30 µM (inactive). The Kd [14] was > 30 µM (inactive), the Kd [15] was 0.388 µM (active) and the Kd [16] was > 30 µM (inactive). For the same compound, the Kd [17] was > 30 µM (inactive), the Kd [19] was > 30 µM (inactive) and the Kd [20] was > 30 µM (inactive).

`Cc1cc(Nc2nc(N[C@@H](C)c3ncc(F)cn3)ncc2Cl)n[nH]1` [AZD-1480] was tested, and the Kd [1] was > 30 µM (inactive), the Kd [2] was > 30 µM (inactive) and the Kd [3] was > 30 µM (inactive). The Kd [4] was > 30 µM (inactive), the Kd [5] was > 30 µM (inactive) and the Kd [6] was > 30 µM (inactive). The Kd [7] was > 30 µM (inactive), the Kd [8] was > 30 µM (inactive) and the Kd [9] was > 30 µM (inactive). The Kd [10] was > 30 µM (inactive), the Kd [11] was > 30 µM (inactive) and the Kd [12] was > 30 µM (inactive). The Kd [13] was > 30 µM (inactive), the Kd [14] was > 30 µM (inactive) and the Kd [15] was 0.238 µM (active). The Kd [16] was > 30 µM (inactive), the Kd [17] was > 30 µM (inactive) and the Kd [18] was > 30 µM (inactive). The Kd [19] was > 30 µM (inactive) and the Kd [20] was > 30 µM (inactive).
